# Experimental data reported in patent US10106544B2, “1,2-dihydro-3H-pyrrolo[1,2-C]imidazol-3-one derivatives and their use as antibacterial agents” (priority 2014, dated 2018).
# Like-named read-outs stand apart in the source and are kept apart here.
# Key:
# Experiment in all cases: Bacterial growth minimal inhibitory concentration (microdilution, cation-adjusted Mueller-Hinton Broth)
# Assay type in all cases: cell-based
# E. coli ATCC25922 = conditions: for MIC: Escherichia coli
# Experimental: (§1) Minimal Inhibitory Concentrations (MICs; mg/L) were determined in cation-adjusted Mueller-Hinton Broth by a microdilution method following the description given in “Methods for Dilution Antimicrobial Susceptibility Tests for Bacteria that Grow Aerobically”, Approved standard, 7th ed., a Clinical and Laboratory Standards Institute (CLSI) Document M7-A7, Wayne, Pa., USA (2006).
# (§2) All Example compounds were tested against several Gram-positive and Gram-negative bacteria. […] K. pneumoniae A-651 is a multiply-resistant strain (in particular quinolone-resistant), while E. coli ATCC25922 and P. aeruginosa ATCC27853 are quinolone-sensitive strains.
# K. pneumoniae A-651 = conditions: for MIC: Klebsiella pneumoniae
# Experimental: as §1, §2
# P. aeruginosa ATCC27853 = conditions: for MIC: Pseudomonas aeruginosa; for MIC for P. aeruginosa ATCC27853: quinolone-sensitive strain
# Experimental: as §1, §2
# [1] = ATCC25922, quinolone-sensitive strain, read-out: MIC for E. coli ATCC25922
# [2] = A651, multiply-resistant strain (in particular quinolone-resistant), read-out: MIC for K. Pneumoniae A-651
# [3] = ATCC27853, quinolone-sensitive strain, read-out: MIC for P. aeruginosa ATCC27853
# [4] = multiply-resistant strain (in particular quinolone-resistant)
Structure (SMILES),MIC (E. coli ATCC25922; [1]),MIC (K. pneumoniae A-651; [2]),MIC (P. aeruginosa ATCC27853; [3]),other results
"C[C@@](CCN1Cc2cc(C#CC#CC(CO)C3CCC3)cn2C1=O)(C(=O)NO)S(C)(=O)=O (mixture of isomers) [Example 60, (2R)-4-(6-((5RS)-5-cyclobutyl-6-hydroxyhexa-1,3-diyn-1-yl)-3-oxo-1H-pyrrolo[1,2-c]imidazol-2(3H)-yl)-N-hydroxy-2-methyl-2-(methylsulfonyl)butanamide]",0.5 mg/L,1 mg/L,4 mg/L,–
C[C@H](O)c1ccc(C#Cc2cc3n(c2)C(=O)N(CC[C@](C)(C(=O)NO)S(C)(=O)=O)C3)cc1 [Example 14],–,–,–,MIC for E. coli ATCC25922 (E. coli ATCC25922; quinolone-sensitive strain): 0.125 mg/L; MIC for K. Pneumoniae A-651 (K. pneumoniae A-651; [4]): 0.25 mg/L; MIC for P. aeruginosa ATCC27853 (P. aeruginosa ATCC27853): 1 mg/L
"C[C@@](CCN1Cc2cc(C#Cc3ccc(C4(CO)CC4)nc3)cn2C1=O)(C(=O)NO)S(C)(=O)=O [Example 23, (R)-N-hydroxy-4-(6-((6-(1-(hydroxymethyl)cyclopropyl)pyridin-3-yl)ethynyl)-3-oxo-1H-pyrrolo[1,2-c]imidazol-2(3H)-yl)-2-methyl-2-(methylsulfonyl)butanamide]",1 mg/L,4 mg/L,4 mg/L,–
"CCOC(C)(C)c1ccc(C#Cc2cc3n(c2)C(=O)N(CCC(C)(C(=O)NO)S(C)(=O)=O)C3)cc1 (racemic) [RE2, (RS)-4-(6-((4-(2-ethoxypropan-2-yl)phenyl)ethynyl)-3-oxo-1H-pyrrolo[1,2-c]imidazol-2(3H)-yl)-N-hydroxy-2-methyl-2-(methylsulfonyl)butanamide]",2 mg/L,2 mg/L,8 mg/L,–
"C[C@@](CCN1Cc2cc(-c3ccc(C(F)(F)F)cc3F)cn2C1=O)(C(=O)NO)S(C)(=O)=O [Example 53, (R)-4-(6-(2-fluoro-4-(trifluoromethyl)phenyl)-3-oxo-1H-pyrrolo[1,2-c]imidazol-2(3H)-yl)-N-hydroxy-2-methyl-2-(methylsulfonyl)butanamide]",0.25 mg/L,0.25 mg/L,8 mg/L,–
"C[C@@](CCN1Cc2cc(C#CC#CC[C@]3(O)C[C@@H](CO)C3)cn2C1=O)(C(=O)NO)S(C)(=O)=O [Example 73, (R)-N-hydroxy-4-(6-(5-((1s,3R)-1-hydroxy-3-(hydroxymethyl)cyclobutyl)penta-1,3-diyn-1-yl)-3-oxo-1H-pyrrolo[1,2-c]imidazol-2(3H)-yl)-2-methyl-2-(methylsulfonyl)butanamide]",–,–,–,MIC for E. coli ATCC25922 (E. coli ATCC25922; quinolone-sensitive strain): 8 mg/L; MIC for K. Pneumoniae A-651 (K. pneumoniae A-651; [4]): 16 mg/L; MIC for P. aeruginosa ATCC27853 (P. aeruginosa ATCC27853): 4 mg/L
"C[C@@](CCN1Cc2cc(C#Cc3ccc(C4(N)CC4)cc3)cn2C1=O)(C(=O)NO)S(C)(=O)=O [Example 72, (R)-4-(6-((4-(1-aminocyclopropyl)phenyl)ethynyl)-3-oxo-1H-pyrrolo[1,2-c]imidazol-2(3H)-yl)-N-hydroxy-2-methyl-2-(methylsulfonyl)butanamide]",–,–,–,"MIC (E. coli ATCC25922; ATCC25922, read-out: MIC for E. coli ATCC25922): 0.125 mg/L; MIC (K. pneumoniae A-651; A651, read-out: MIC for K. Pneumoniae A-651): 0.25 mg/L; MIC (P. aeruginosa ATCC27853; ATCC27853, read-out: MIC for P. aeruginosa ATCC27853): 0.5 mg/L"
"C[C@@](CCN1Cc2cc(C#CC#CC3(O)COC3)cn2C1=O)(C(=O)NO)S(C)(=O)=O [Example 4, (R)-N-hydroxy-4-(6-((3-hydroxyoxetan-3-yl)buta-1,3-diyn-1-yl)-3-oxo-1H-pyrrolo[1,2-c]imidazol-2(3H)-yl)-2-methyl-2-(methylsulfonyl)butanamide]",2 mg/L,2 mg/L,4 mg/L,–
"C[C@@](CCN1Cc2cc(C#Cc3ccc(CCO)cc3)cn2C1=O)(C(=O)NO)S(C)(=O)=O [Example 16, (R)-N-hydroxy-4-(6-((4-(2-hydroxyethyl)phenyl)ethynyl)-3-oxo-1H-pyrrolo[1,2-c]imidazol-2(3H)-yl)-2-methyl-2-(methylsulfonyl)butanamide]",≤ 0.063 mg/L,0.25 mg/L,0.5 mg/L,–
"C[C@@H](O)c1ccc(C#Cc2cc3n(c2)C(=O)N(CC[C@](C)(C(=O)NO)S(C)(=O)=O)C3)cc1 [Example 13, (R)-N-hydroxy-4-(6-((4-((R)-1-hydroxyethyl)phenyl)ethynyl)-3-oxo-1H-pyrrolo[1,2-c]imidazol-2(3H)-yl)-2-methyl-2-(methylsulfonyl)butanamide]",0.125 mg/L,0.25 mg/L,0.5 mg/L,–
"C[C@@](CCN1Cc2cc(C#CC#C[C@H]3C[C@]3(F)CO)cn2C1=O)(C(=O)NO)S(C)(=O)=O (single isomer, unassigned) [Example 78]",0.25 mg/L,0.5 mg/L,0.5 mg/L,–
"C[C@@](CCN1Cc2cc(C#Cc3ccc(C4(CO)CCC4)cc3)cn2C1=O)(C(=O)NO)S(C)(=O)=O [Example 40, (R)-N-hydroxy-4-(6-((4-(1-(hydroxymethyl)cyclobutyl)phenyl)ethynyl)-3-oxo-1H-pyrrolo[1,2-c]imidazol-2(3H)-yl)-2-methyl-2-(methylsulfonyl)butanamide]",≤ 0.063 mg/L,0.25 mg/L,1 mg/L,–
"C[C@@](CCN1Cc2cc(-c3ccc(Cl)cc3F)cn2C1=O)(C(=O)NO)S(C)(=O)=O [Example 48, (R)-4-(6-(4-chloro-2-fluorophenyl)-3-oxo-1H-pyrrolo[1,2-c]imidazol-2(3H)-yl)-N-hydroxy-2-methyl-2-(methylsulfonyl)butanamide]",≤ 0.063 mg/L,0.25 mg/L,1 mg/L,–

# More lines, main results first:
MIC (E. coli ATCC25922; [1]),MIC (K. pneumoniae A-651; [2]),MIC (P. aeruginosa ATCC27853; [3]),Structure (SMILES),other results
4 mg/L,8 mg/L,4 mg/L,"C[C@@](CCN1Cc2cc(C#CC#CCNS(C)(=O)=O)cn2C1=O)(C(=O)NO)S(C)(=O)=O [Example 58, (R)-N-hydroxy-2-methyl-4-(6-(5-(methylsulfonamido)penta-1,3-diyn-1-yl)-3-oxo-1H-pyrrolo[1,2-c]imidazol-2(3H)-yl)-2-(methylsulfonyl)butanamide]",–
2 mg/L,8 mg/L,2 mg/L,"CN1CCN(Cc2ccc(C#Cc3cc4n(c3)C(=O)N(CCC(C)(C(=O)NO)S(C)(=O)=O)C4)cc2)CC1 (racemic) [RE6, (RS)—N-hydroxy-2-methyl-4-(6-((4-((4-methylpiperazin-1-yl)methyl)phenyl)ethynyl)-3-oxo-1H-pyrrolo[1,2-c]imidazol-2(3H)-yl)-2-(methylsulfonyl)butanamide]",–
≤ 0.063 mg/L,0.25 mg/L,1 mg/L,"COc1cccc(-c2cc3n(c2)C(=O)N(CC[C@](C)(C(=O)NO)S(C)(=O)=O)C3)c1F [Example 28, (R)-4-(6-(2-fluoro-3-methoxyphenyl)-3-oxo-1H-pyrrolo[1,2-c]imidazol-2(3H)-yl)-N-hydroxy-2-methyl-2-(methylsulfonyl)butanamide]",–
0.5 mg/L,1 mg/L,4 mg/L,"CC(CCN1Cc2cc(C#Cc3ccc(CO)cc3F)cn2C1=O)(C(=O)NO)S(C)(=O)=O (racemic) [RE3, (RS)-4-(6-((2-fluoro-4-(hydroxymethyl)phenyl)ethynyl)-3-oxo-1H-pyrrolo[1,2-c]imidazol-2(3H)-yl)-N-hydroxy-2-methyl-2-(methylsulfonyl)butanamide]",–
0.125 mg/L,0.25 mg/L,0.5 mg/L,"C[C@@](CCN1Cc2cc(C#Cc3ccc(C4(CO)CC4)cc3)cn2C1=O)(C(=O)NO)S(C)(=O)=O [Example 7, (R)-N-hydroxy-4-(6-((4-(1-(hydroxymethyl)cyclopropyl)phenyl)ethynyl)-3-oxo-1H-pyrrolo[1,2-c]imidazol-2(3H)-yl)-2-methyl-2-(methylsulfonyl)butanamide]",–
1 mg/L,2 mg/L,4 mg/L,"C[C@@](CCN1Cc2cc(-c3ccc(OCCO)cc3F)cn2C1=O)(C(=O)NO)S(C)(=O)=O [Example 41, (R)-4-(6-(2-fluoro-4-(2-hydroxyethoxy)phenyl)-3-oxo-1H-pyrrolo[1,2-c]imidazol-2(3H)-yl)-N-hydroxy-2-methyl-2-(methylsulfonyl)butanamide]",–
4 mg/L,8 mg/L,4 mg/L,"C[C@@](CCN1Cc2cc(C#CC#CC3(O)CCOCC3)cn2C1=O)(C(=O)NO)S(C)(=O)=O [Example 64, (R)-N-hydroxy-4-(6-((4-hydroxytetrahydro-2H-pyran-4-yl)buta-1,3-diyn-1-yl)-3-oxo-1H-pyrrolo[1,2-c]imidazol-2(3H)-yl)-2-methyl-2-(methylsulfonyl)butanamide]",–
1 mg/L,2 mg/L,4 mg/L,"CN(C)CC#CC#Cc1cc2n(c1)C(=O)N(CC[C@](C)(C(=O)NO)S(C)(=O)=O)C2 [Example 46, (R)-4-(6-(5-(dimethylamino)penta-1,3-diyn-1-yl)-3-oxo-1H-pyrrolo[1,2-c]imidazol-2(3H)-yl)-N-hydroxy-2-methyl-2-(methylsulfonyl)butanamide]",–
